Experimental data as given in US20230021448A1, “COMPOUNDS AND COMPOSITIONS FOR TREATING CONDITIONS ASSOCIATED WITH STING ACTIVITY” (IFM Due, Inc., priority 2019, published 2023).

molecular target: T1, STING (Homo sapiens, UniProt Q86WV6, G230A/H232R/R293Q/R71H); test: STING reporter assay: luciferase reporter activity in THP1-Dual KO-IFNAR2 cells stimulated with 2'3'cGAMP; format: cell-based; conditions: 2′3′cGAMP 15 μM final, 24h, read-out: hSTING: EC50
T1 construct: host or cells: THP1-Dual KO-IFNAR2 cells
Protocol: STING pathway activation by the compounds described herein was measured using THIP1-Dua1™ cells (KO-IFNAR2).
TTIP1-Dual™ KO-IFNAR2 Cells (obtained from invivogen) were maintained in RPMI, 10% FCS, 5 ml P/S, 2 mM L-glut, 10 mM Hepes, and 1 mM sodium pyruvate. Compounds were spotted in empty 384 well tissue culture plates (Greiner 781182) by Echo for a final concentration of 0.0017-100 μM. Cells were plated into the TC plates at 40 μL per well, 2×10E6 cells/mL. For activation with STING ligand, 2′3′cGAMP (MW 718.38, obtained from Invivogen), was prepared in Optimem media.
The following solutions were prepared for each 1×384 plate: • Solution A: 2 mL Optimem with one of the following stimuli: • […] • Solution B: 2 mL Optimem with 60 μL Lipofectamine 2000->Incubate 5 min at RT
2 mL of solution A and 2 ml Solution B was mixed and incubated for 20 min at room temperature (RT). 20 uL of transfection solution (A+B) was added on top of the plated cells, with a final 2′3′cGAMP concentration of 15 μM. The plates were then centrifuged immediately at 340 g for 1 minute, after which they were incubated at 37° C., 5% C02, >98% humidity for 24h. Luciferase reporter activity was then measured. EC50 values were calculated by using standard methods known in the art.
Luciferase reporter assay: 10 μL of supernatant from the assay was transferred to white 384-plate with flat bottom and squared wells. One pouch of QUANTI-Luc™ Plus was dissolved in 25 mL of water. 100 μL of QLC Stabilizer per 25 mL of QUANTI-Luc™ Plus solution was added. 50 μL of QUANTI-Luc™ Plus/QLC solution per well was then added. Luminescence was measured on a Platereader (e.g., Spectramax I3X (Molecular Devices GF3637001)).
Luciferase reporter activity was then measured. EC50 values were calculated by using standard methods known in the art.

T1 sequence (Q86WV6 whole entry R71H/G230A/H232R/R293Q): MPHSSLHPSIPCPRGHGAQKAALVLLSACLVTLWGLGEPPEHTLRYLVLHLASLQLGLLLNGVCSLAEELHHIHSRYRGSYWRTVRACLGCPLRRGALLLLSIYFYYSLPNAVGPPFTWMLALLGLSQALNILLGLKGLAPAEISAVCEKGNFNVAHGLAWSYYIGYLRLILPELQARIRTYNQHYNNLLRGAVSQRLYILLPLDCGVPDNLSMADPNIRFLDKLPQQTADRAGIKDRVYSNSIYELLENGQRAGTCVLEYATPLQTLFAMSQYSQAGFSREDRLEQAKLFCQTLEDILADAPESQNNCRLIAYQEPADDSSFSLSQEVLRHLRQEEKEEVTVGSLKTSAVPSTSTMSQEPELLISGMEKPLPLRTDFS

SMILES | EC50
O=C(Nc1ccc(C(F)(F)F)cc1)C(=O)Nc1c[nH]c2ccc(F)c(F)c12 [Compound 180] | 0.2 to 1 µM
O=C(Nc1ccc(C(F)(F)F)c(Cl)c1)C(=O)Nc1c[nH]c2cc(F)c(F)cc12 [Compound 181] | 0.2 to 1 µM
C#Cc1ccc(NC(=O)C(=O)Nc2c[nH]c3cc(F)c(F)cc23)cc1 [Compound 182] | 0.2 to 1 µM
Cc1cc(NC(=O)C(=O)Nc2c[nH]c3ccccc23)cc(C(F)(F)F)c1 [Compound 183] | 0.2 to 1 µM
O=C(Nc1ccc(C(F)(F)F)cc1)C(=O)Nc1c[nH]c2ccc(F)cc12 [Compound 184] | 0.2 to 1 µM
CC[C@H]1CC[C@@H](NC(=O)C(=O)Nc2c[nH]c3cc(F)c(F)cc23)CC1 [Compound 185] | 0.2 to 1 µM
CC[C@H]1CC[C@H](NC(=O)C(=O)Nc2c[nH]c3cc(F)c(F)cc23)CC1 [Compound 186] | 0.04 to 0.2 µM
O=C(Nc1c[nH]c2cc(F)c(F)cc12)C(=O)N[C@H]1CC[C@@H](OCC(F)F)CC1 [Compound 187] | 1 to 5 µM
O=C(NCCC12C[C@H]3C[C@@H](C1)C[C@@H](C2)C3)C(=O)Nc1c[nH]c2cc(F)c(F)cc12 [Compound 188] | 0.2 to 1 µM
O=C(NCC1CC12CCCCC2)C(=O)Nc1c[nH]c2cc(F)c(F)cc12 (stereo not drawn) [Compound 189] | 0.2 to 1 µM
O=C(NCCC1CC2CCC1C2)C(=O)Nc1c[nH]c2cc(F)c(F)cc12 (stereo not drawn) [Compound 190] | 0.2 to 1 µM
CC(C)(C)C1CCC(NC(=O)C(=O)Nc2c[nH]c3cc(F)c(F)cc23)CC1 (stereo not drawn) [Compound 191] | 0.2 to 1 µM
O=C(Nc1c[nH]c2cc(F)c(F)cc12)C(=O)N1CCCC(Oc2ccc(C(F)(F)F)cc2)C1 (stereo not drawn) [Compound 195] | 0.2 to 1 µM
Cc1ccc(O[C@H]2C[C@H](NC(=O)C(=O)Nc3c[nH]c4cc(F)c(F)cc34)C2)cn1 [Compound 196] | 0.2 to 1 µM
O=C(Nc1c[nH]c2cc(F)c(F)cc12)C(=O)N[C@H]1C[C@H](Nc2ccc(C(F)(F)F)cn2)C1 [Compound 197] | 0.2 to 1 µM
O=C(Nc1c[nH]c2cc(F)c(F)cc12)C(=O)N[C@H]1C[C@@H](Oc2ccc(C(F)(F)F)nc2)C1 [Compound 198] | 0.2 to 1 µM
Cc1ccc(O[C@H]2C[C@H](NC(=O)C(=O)Nc3c[nH]c4cc(F)c(F)cc34)C2)nc1 [Compound 199] | 0.04 to 0.2 µM
O=C(NCCCOc1ccc(C(F)(F)F)nc1)C(=O)Nc1c[nH]c2cc(F)c(F)cc12 [Compound 200] | 0.2 to 1 µM
O=C(Nc1c[nH]c2cc(F)c(F)cc12)C(=O)N[C@H]1C[C@H](Oc2cncc(C(F)(F)F)c2)C1 [Compound 201] | 0.2 to 1 µM
O=C(Nc1c[nH]c2cc(F)c(F)cc12)C(=O)N[C@H]1CC[C@H](Nc2ccccn2)CC1 [Compound 202, N-(5,6-difluoro-1H-indol-3-yl)-N′-[trans-4-(pyridin-2-ylamino)cyclohexyl]ethanediamide] | 5 to 100 µM
O=C(NCC(=O)N1CCc2cccnc21)C(=O)Nc1c[nH]c2cc(F)c(F)cc12 [Compound 203] | 0.2 to 1 µM
O=C(NCC(=O)N1CCc2ccc(C(F)(F)F)cc21)C(=O)Nc1c[nH]c2cc(F)c(F)cc12 [Compound 204] | 0.04 to 0.2 µM
O=C(Nc1c[nH]c2cc(F)c(F)cc12)C(=O)NC1CC2CCC(C1)C2Oc1ccc(C(F)(F)F)cc1 (stereo not drawn) [Compound 205] | 1 to 5 µM
CC(C)(CO)CCCN1CCN(C(=O)C(=O)Nc2c[nH]c3cc(F)c(F)cc23)CC1 [Compound 206] | 5 to 100 µM
O=C(Nc1c[nH]c2ccc(Cl)cc12)C(=O)N[C@H]1C[C@H](Nc2ccccn2)C1 [Compound 208] | 1 to 5 µM
O=C(Nc1c[nH]c2cc(F)c(Cl)cc12)C(=O)N[C@H]1CC[C@H](Oc2ccc(C(F)(F)F)cn2)CC1 [Compound 209, N-(5-chloro-6-fluoro-1H-indol-3-yl)-N′-(trans-4-((5-(trifluoromethyl)pyridin-2-yl)oxy)cyclohexyl)oxalamide] | 0.2 to 1 µM
O=C(Nc1c[nH]c2cc(F)c(F)cc12)C(=O)N[C@H]1C[C@H](Oc2ccc(C(F)(F)F)cn2)C1 [Compound 210] | 0.2 to 1 µM

SMILES | EC50
O=C(Nc1c[nH]c2cc(F)c(F)cc12)C(=O)N[C@H]1CC[C@H](NCC(F)(F)F)CC1 [Compound 211] | 1 to 5 µM
O=C(Nc1c[nH]c2ccc(Cl)cc12)C(=O)N[C@H]1C[C@H](Oc2ccccn2)C1 [Compound 212] | 0.2 to 1 µM
O=C(Nc1c[nH]c2ccc(Cl)cc12)C(=O)N[C@H]1CC[C@H](Oc2ccc(C(F)(F)F)cc2)CC1 [Compound 213, N-(5-chloro-1H-indol-3-yl)-N′-(trans-4-(4-(trifluoromethyl)phenoxy)cyclohexyl)oxalamide] | 0.04 to 0.2 µM
N#Cc1cc(F)c2[nH]cc(NC(=O)C(=O)NCc3ccc(C(F)(F)F)c(Cl)c3)c2c1 [Compound 215] | 0.2 to 1 µM
O=C(Nc1c[nH]c2cc(F)c(F)cc12)C(=O)N1CCN(CCc2ccc(C(F)(F)F)cc2)CC1 [Compound 216] | 1 to 5 µM
O=C(Nc1c[nH]c2cc(F)c(F)cc12)C(=O)NC1CCC(Oc2ccc(C(F)(F)F)cc2)C1 (stereo not drawn) [Compound 217] | 0.2 to 1 µM
O=C(Nc1c[nH]c2cc(F)c(F)cc12)C(=O)NC1CC(Oc2ccc(C(F)(F)F)cc2)C1 (stereo not drawn) [Compound 218] | 0.2 to 1 µM
CN1CCOc2cc(NC(=O)C(=O)Nc3c[nH]c4cc(F)c(F)cc34)cnc21 [Compound 219] | 1 to 5 µM
O=C(Nc1c[nH]c2cc(F)c(F)cc12)C(=O)NC1CCC(Oc2ccc(C(F)(F)F)cn2)C1 (stereo not drawn) [Compound 221] | 0.2 to 1 µM
O=C(Nc1c[nH]c2cc(F)c(F)cc12)C(=O)N[C@H]1CC[C@@H](Oc2ccc(C(F)(F)F)nc2)CC1 [Compound 222] | 0.2 to 1 µM
O=C(Nc1c[nH]c2cc(F)c(F)cc12)C(=O)N[C@H]1CC[C@H](Oc2ccc(C(F)(F)F)nc2)CC1 [Compound 223, N-(5,6-difluoro-1H-indol-3-yl)-N′-[trans-4-[[6-(trifluoromethyl)pyridin-3-yl]oxy]cyclohexyl]ethanediamide] | 0.2 to 1 µM
O=C(Nc1c[nH]c2cc(F)c(F)cc12)C(=O)NC1CCC(Oc2ccc(C(F)(F)F)nc2)CC1 (stereo not drawn) [Compound 224] | 0.04 to 0.2 µM
O=C(Nc1c[nH]c2cc(F)ccc12)C(=O)NC1CCC(Oc2ccc(C(F)(F)F)cn2)CC1 (stereo not drawn) [Compound 225, N-(6-fluoro-1H-indol-3-yl)-N′-(4-((5-(trifluoromethyl)pyridin-2-yl)oxy)cyclohexyl)oxalamide] | 0.04 to 0.2 µM
O=C(Nc1c[nH]c2cc(F)c(F)cc12)C(=O)NC1CC(Oc2ccc(C(F)(F)F)cn2)C1 (stereo not drawn) [Compound 226] | 0.04 to 0.2 µM
O=C(Nc1c[nH]c2cc(F)c(F)cc12)C(=O)N[C@H]1CC[C@@H](Oc2ccc(C(F)(F)F)cn2)CC1 [Compound 229] | 1 to 5 µM
O=C(Nc1c[nH]c2cc(F)c(F)cc12)C(=O)N[C@H]1CC[C@H](Oc2ccc(C(F)(F)F)cn2)CC1 [Compound 230, N-(5,6-difluoro-1H-indol-3-yl)-N′-[trans-4-[[5-(trifluoromethyl)pyridin-2-yl]oxy]cyclohexyl]ethanediamide] | 0.04 to 0.2 µM
N#Cc1cc(NC(=O)C(=O)Nc2c[nH]c3cc(F)c(F)cc23)cnc1N1CCCC1 [Compound 231] | 0.2 to 1 µM
Cc1cc(NC(=O)C(=O)Nc2c[nH]c3cc(F)c(-c4cnn(C)c4)cc23)cnc1N1CCC(F)(F)CC1 [Compound 232] | 1 to 5 µM
O=C(Nc1c[nH]c2cc(F)c(F)cc12)C(=O)N[C@H]1CCCC(Oc2ccc(C(F)(F)F)cc2)C1 (stereo partly drawn) [Compound 233] | 0.2 to 1 µM
O=C(Nc1c[nH]c2cc(F)c(F)cc12)C(=O)N[C@@H]1CCCC(Oc2ccc(C(F)(F)F)cc2)C1 (stereo partly drawn) [Compound 234] | 0.2 to 1 µM
O=C(Nc1cnc(-n2nccn2)c(C(F)(F)F)c1)C(=O)Nc1c[nH]c2cc(F)c(F)cc12 [Compound 238, N1-(6-(2H-1,2,3-triazol-2-yl)-5-(trifluoromethyl)pyridin-3-yl)-N2-(5,6-difluoro-1H-indol-3-yl)oxalamide] | 1 to 5 µM
O=C(Nc1c[nH]c2cc(F)c(F)cc12)C(=O)N1CCN(c2ccc(CC(F)(F)F)cn2)CC1 [Compound 241] | 0.2 to 1 µM
Cc1ccc(CNC(=O)C(=O)Nc2c[nH]c3cc(F)c(F)c(Br)c23)cc1C(F)(F)F [Compound 242] | 5 to 100 µM
O=C(Nc1c[nH]c2cc(F)c(F)cc12)C(=O)N[C@H]1CC[C@@H](Oc2ccc(C(F)(F)F)cc2)CC1 [Compound 249] | 1 to 5 µM
O=C(Nc1c[nH]c2cc(F)c(F)cc12)C(=O)N[C@H]1CC[C@H](Oc2ccc(C(F)(F)F)cc2)CC1 [Compound 250, N-(5,6-difluoro-1H-indol-3-yl)-N′-(trans-4-(4-(trifluoromethyl)phenoxy)cyclohexyl)oxalamide] | 0.04 to 0.2 µM
O=C(Nc1c[nH]c2cc(F)c(F)cc12)C(=O)N1CCC(Cc2ccc(C(F)(F)F)cc2)CC1 [Compound 251] | 1 to 5 µM
O=C(Nc1c[nH]c2cc(F)c(F)cc12)C(=O)N1CCC2(CCCCC2)CC1 [Compound 252] | 1 to 5 µM
